Data as given in patent US20230167437A1, “COMPOSITIONS FOR TREATING CANCER WITH KRAS MUTATIONS AND USES THEREOF” (Aadigen, LLC, priority 2020, published 2023).

System: SW403 tumor (Human colorectal cancer, 35G>T)
Experiment: SW403 tumor growth in vivo, combination with Capecitabine
Set-up: species or system mice
Conditions: Capecitabine 200 μg once a week
Protocol: It was also evaluated whether targeting mutant KRAS in combination with a chemotherapeutic agent can suppress tumor growth in vivo when administered intravenously using ADGN-100-Hy3 nanoparticles. Female nude mice 6-weeks of age were injected with either Human pancreatic carcinoma cell (Panc1-Luc) containing the 35G>A mutation, or Human colorectal cancer cells (SW403) containing 35G>T KRAS mutation (20×10^6 cells in 200 μl PBS). The animals were kept under pathogen-free conditions and fed and watered ad libitum, in cages of 2 to 4 animals (in compliance with recommended area surface/animal), in a dedicated room with a 12 h/12 h light/dark cycle at a constant temperature of 22° C. A period of 2 weeks was allowed for tumor development before the beginning of the experiments […]
Animal were injected ADGN/mRNA complex on day 1 and day 7. […] PANC-1 tumor size was evaluated by bioluminescence imaging. […] Semi-quantitative data of luciferase-positive tumor cell signals were obtained using the manufacturer's software (Living Image; PerkinElmer). Results were expressed as photons/second (photons/s). […] Results were then expressed as values relative to day 0. SW403 tumor size was evaluated every 7 days using caliper. Results were then expressed as values relative to day 0. […]

## CCCCCOC(=O)Nc1nc(=O)n([C@@H]2O[C@H](C)[C@@H](O)[C@H]2O)cc1F [Capecitabine]
  reduction of SW403 tumor growth: 38%
